Experimental data: patent publication US10336768B2, “Pyrimidine compounds and methods using the same” (Yuma Therapeutics, Inc., priority 2014, dated 2019)
Where “and” joins values, the source holds several entries; their conditions need not be identical. Equal entries are not always repeated.

How the values were obtained:
His-tagged-Hsp90 = tested on: T1, His-tagged-Hsp90; experiment: Hsp90 biochemical assay (AlphaLISA); assay type: binding; details: IC50 class; AlphaLISA (primary assay); read-out: Hsp90 inhibitory activity
T1 construct: fused on or other part: His tag (captured on Ni2+-coated beads)
Experimental: This assay employs biotinylated geldanamycin, His-tagged-Hsp90, and Ni^+2 coated beads. This assay is homogenous and miniaturized to 384-well plates. Measurement of binding activity was performed on an Envision reader. […] This assay is the primary assay for evaluating compounds of the invention.

[1] = molecular target: truncated alpha-Hsp90 protein (Homo sapiens, UniProt P07900); experiment: Hsp90 biochemical assay (fluorescence polarization); assay type: binding; details: footnotes (1)-(9) of Table 3, read-out: Hsp90 FP assay result
Experimental: Hsp90 inhibitory activity of the compounds of the invention was assessed using a fluorescence polarization (FP) assay using FITC-labeled geldanamycin and truncated alpha-Hsp90 protein. Measurement of binding activity was performed on BMG CLARIOstar® reader (BMG Labtech, Ortenberg, Germany).

Hsp70 = experiment: Hsp90 cell based functional assay (Western blot for Hsp70, Hsp90); details: for EC50: read-out: Hsp 70 agonist activity; for Hsp 70 agonist activity, result in words: alternative result printed in the same cell; for Hsp 70 agonist activity: EC50 at which Hsp70 is increased two-fold: cells treated 24 h, Western blot; for Hsp 70 agonist activity: concentration at which Hsp70 is increased >2-fold: fold noted in cell: >2-fold
Experimental: Cells were treated with compounds of the invention for 24 h and then lysed in a buffer containing NP-40, orthovanadate, and protease inhibitors. Western blots were performed with antibodies specific to Hsp70, Hsp90, or actin (as control).

tau = details: Corcoran et al., 2010; cited from earlier work

| SMILES | IC50 (His-tagged-Hsp90) [µM] | IC50 [1] | Hsp 70 agonist activity: EC50 at which Hsp70 is increased two-fold (Hsp70) [µM] | further results |
| --- | --- | --- | --- | --- |
| Nc1nc2c(c(-c3c(Cl)cc(Cl)c4c3CCO4)n1)CCC2 [compound 13, 4-(5,7-Dichloro-2,3-dihydrobenzofuran-4-yl)-6,7-dihydro-5H-cyclopenta[d]pyrimidin-2-amine] | < 1 | 1.8 µM | – | EC50 (Hsp70): > 10 µM |
| COc1cc(-c2nc(N)nc3ccn(C)c23)c(Cl)cc1F [compound 26] | 1 to 4 | 8.5 µM and 11.2 µM | 3.3 | Hsp 70 agonist activity, result in words (Hsp70): no observable effect |
| COc1cc(-c2nc(N)nc3cc[nH]c23)c(Cl)cc1Cl [compound 19, 4-(2,4-Dichloro-5-methoxyphenyl)-5H-pyrrolo[3,2-d]pyrimidin-2-amine] | < 1 | – | – | Hsp 70 agonist activity: concentration at which Hsp70 is increased >2-fold (Hsp70): >2-fold at 0.4-1 μM |
| COc1cc(-c2nc(N)nc3c2CCC3)c(Cl)cc1Cl [compound 12, 4-(2,4-Dichloro-5-methoxyphenyl)-6,7-dihydro-5H-cyclopenta[d]pyrimidin-2-amine] | < 1 | 1.7 µM | – | Hsp 70 agonist activity: concentration at which Hsp70 is increased >2-fold (Hsp70): >2-fold at ≥10 μM |
| CN(C)CCOc1cc(-c2nc(N)nc3c2CCC3)c(Cl)cc1Cl [compound 14, 4-(2,4-dichloro-5-(2-(dimethylamino)ethoxy)phenyl)-6,7-dihydro-5H-cyclopenta[d]pyrimidin-2-amine] | < 1 | – | – | Hsp 70 agonist activity: concentration at which Hsp70 is increased >2-fold (Hsp70): >2-fold at 10 μM |
| COc1nc(N)nc(-c2cc(OC)c(Cl)cc2Cl)n1 [compound 36] | < 1 | – | >10 | – |
| Cn1ccc2nc(N)nc(-c3c(Cl)cc(Cl)c4c3CCO4)c21 [compound 21, 4-(5,7-dichloro-2,3-dihydrobenzofuran-4-yl)-5-methyl-5H-pyrrolo[3,2-d]pyrimidin-2-amine] | 1 to 4 | – | – | EC50 (Hsp70): > 10 µM |
| COc1cc(-c2nc(N)nc3cc[nH]c23)c(Cl)cc1F [compound 25] | 4 to 10 | 12.1 µM and 19.3 µM | – | Hsp 70 agonist activity, result in words (Hsp70): no observable effect; Hsp 70 agonist activity: fold increase of Hsp70 (Hsp70; concentration not given, alternative result: no observable effect): 1.5 fold |
| CC(C)c1cc(-c2c(Cl)cc(Cl)c3c2CCO3)nc(N)n1 [compound 7, 4-(5,7-dichloro-2,3-dihydrobenzofuran-4-yl)-6-isopropylpyrimidin-2-amine] | < 1 | > 10 µM | – | EC50 (Hsp70): > 10 µM |
| COc1cc(-c2cc(Cl)nc(N)n2)c(Cl)cc1Cl [compound 39] | < 1 | – | 0.4 | – |
| Cc1cc(-c2c(Cl)cc(Cl)c3c2CCO3)nc(N)n1 [compound 5, 4-(5,7-Dichloro-2,3-dihydrobenzofuran-4-yl)-6-methylpyrimidin-2-amine] | < 1 | – | – | Hsp 70 agonist activity: concentration at which Hsp70 is increased >2-fold (Hsp70): >2 fold at 0.4-1.0 μM |
| CCNC(=O)c1cc2c(-c3c(Cl)cc(Cl)c4c3CCO4)nc(N)nc2s1 [compound 24, 2-amino-4-(5,7-dichloro-2,3-dihydrobenzofuran-4-yl)-N-ethylthieno[2,3-d]pyrimidine-6-carboxamide] | < 1 | – | 0.4 | – |
| Cc1nc(N)nc(-c2c(Cl)cc(Cl)c3c2CCO3)c1C [compound 10, 4-(5,7-Dichloro-2,3-dihydrobenzofuran-4-yl)-5,6-dimethylpyrimidin-2-amine] | < 1 | 2.3 µM and 2.4 µM | – | Hsp 70 agonist activity: concentration at which Hsp70 is increased >2-fold (Hsp70): >2-fold at 0.4 μM |
| NC(=O)c1cc2c(-c3c(Cl)cc(Cl)c4c3CCO4)nc(N)nc2s1 [compound 29] | < 1 | – | 0.4 | – |
| CN(C)CCOc1cc(-c2nc(N)nc3cc[nH]c23)c(Cl)cc1Cl [compound 27] | 1 to 4 | – | 10 | – |
| COc1cc(-c2nc(N)nc(C)c2C)c(Cl)cc1Cl [compound 9, 4-(2,4-Dichloro-5-methoxyphenyl)-5,6-dimethylpyrimidin-2-amine] | < 1 | 1 µM and 1.4 µM | – | Hsp 70 agonist activity: concentration at which Hsp70 is increased 1.5-fold (Hsp70; fold noted in cell: 1.5-fold): 1.5-fold at 1 μM |
| O=[Se](=O)(O)O [Sodium selenate] | – | – | – | efficacy in TMHT tau model (tau): effective in the TMHT tau model |
| CCc1cc(-c2c(Cl)cc(Cl)c3c2CCO3)nc(N)n1 [compound 6, 4-(5,7-dichloro-2,3-dihydrobenzofuran-4-yl)-6-ethylpyrimidin-2-amine] | < 1 | – | ≥10 | – |
| COc1cc(-c2c(Cl)cc(Cl)c3c2CCO3)nc(N)n1 [compound 8, 4-(5,7-dichloro-2,3-dihydrobenzofuran-4-yl)-6-methoxypyrimidin-2-amine] | < 1 | 5.5 µM and 6.2 µM | – | EC50 (Hsp70): > 10 µM |
| CCOC(=O)c1cc2c(-c3c(Cl)cc(Cl)c4c3CCO4)nc(N)nc2s1 [compound 23, Ethyl-2-amino-4-(5,7-dichloro-2,3-dihydrobenzofuran-4-yl)thieno[2,3-d]pyrimidine-6-carboxylate] | 4 to 10 | 11.1 µM | 3.3 | – |
| CCn1ccc2nc(N)nc(-c3c(Cl)cc(Cl)c4c3CCO4)c21 [compound 22, 4-(5,7-dichloro-2,3-dihydrobenzofuran-4-yl)-5-ethyl-5H-pyrrolo[3,2-d]pyrimidin-2-amine] | 4 to 10 | – | – | EC50 (Hsp70): > 10 µM |
